Data published in patent publication US8518889B2, “Method of treating cancer with antibodies against long-form leukotriene B4 receptor BLT2” (Korea University Research & Business Foundation, priority 2007, dated 2013).

Columns and labels:
[1] = test system: Rat2-HO6 cells; test: experimental metastasis assay, lung metastasis driven by H-Ras^V12; assay type: in vivo, nude mice; conditions: intraperitoneal 3 and 5 days after cell injection, 21 days
Procedure: All experimental animals used in this study were treated according to guidelines approved by the Institutional Animal Care and Use Committee of Korea University. Female nude mice (Charles River, Wilmington, Mass.), four-weeks-old at the time of injection, were used in the experimental metastasis assay. Rat-2, Rat2-HO6, and Rat2-BLT2 cells (5×10^5 cells) were prepared for injection from cultures in logarithmic growth at the time of harvest. The cells were briefly treated with 0.025% trypsin and 0.1% EDTA in Hanks' balanced salt solution and quickly removed from trypsin by centrifugation, resuspended in saline containing LTB4, and injected within 1 hr in 0.1 ml into the lateral tail vein with a 26-gauge needle. For inhibitor experiments, U75302 and LY255283 (0.25 mg/kg for BLT1 antagonist and 2.5 mg/kg for BLT2 antagonist) was injected intraperitoneal ˜3 and 5 days after injection of cells that were pretreated with inhibitors. […]
In vivo lung metastasis driven by H-Ras^V12 (panel B of FIG. 2a) or BLT2 (panel C of FIG. 2a) was reduced by BLT2 inhibition (LY255283) based on the macroscopic and histologic appearance of lung. […] Mice were euthanized 21 days after cell injection, and the number of lung metastasis nodules and weight of lung was analyzed in each group. […] Metastasis survival was analyzed in Kaplan-Meyer plots.

[2] = test system: breast cancer cell line, T47D (ER+), MDA-MB-468 (ER−), MDA-MB-453 (ER−); test: cell growth assay (trypan blue exclusion); assay type: cell-based, human; conditions: LY255283 5, 10 μM; U75302 0.5, 1 μM; 24, 48, 72 hr
Procedure: (§1) To investigate the effect of BLT2 antagonist, LY255283 and BLT1 antagonist, U75302 on growth of breast cancer, breast cancer cell line, T47D (ER+), MDA-MB-468 (ER−), MDA-MB-453 (ER−) and normal IMR-90 cells were used. Cells were treated with LY255283 and U75302 in a dose-dependent manner and analyzed for cell number using the trypan blue dye exclusion method. Cells were plated at a density of 0.5×10^5 or 5×10^5 cells/well on 12-well plate. After 24 h, cells were incubated in media containing 0.5% serum for 3 hr. Then, cells were treated with U75302 (0.5, 1 μM), LY255283 (5, 10 μM) and incubated at 37° C. for indicated time (24, 48, and 72 hr). To measure the growth of cell, the treated cells were then trypsinized at each time point, and counted by the trypan-blue exclusion method

[3] = test system: normal IMR-90 cells; test: cell growth assay (trypan blue exclusion); assay type: cell-based; conditions: LY255283 5, 10 μM; U75302 0.5, 1 μM; 24, 48, 72 hr
Procedure: as §1

[4] = test system: 253J-BV cell line; test: Western blot of apoptotic proteins (PARP, Caspase-9, Bax); assay type: cell-based, human; conditions: 48 hr
Procedure: Cells were washed with cold PBS and cells were scraped into lysis buffer [20 mM Tris-HCl (pH 7.5), 15 OmM NaCl, 0.5% NP-40, 5 mM EDTA, 1% triton X-100 added protease inhibitors] at 4° C. Harvested protein samples were heated at 95° C. for 5 min and then subjected to SDS-PAGE on acrylamide gels, followed by transfer to polyvinylidene difluoride membranes for 90 min at 100 V. The membranes were blocked for 1 h with Tris-buffered saline (TBS) containing 0.05% (vol/vol) Tween 20 plus 5% (wt/vol) nonfat dry milk and then incubated with appropriate antibodies (PARP, 1:2000 dilution, Caspase-9, 1:2000 dilution, Bax 1:2000 dilution, actin, 1:3000 dilution) in 5% nonfat milk overnight at 4° C. Then membrane bound protein-antibody complex incubated for 2 hr with HRP-conjugated secondary antibody before development with an enhanced chemiluminescence kit (Amersham Biosciences, UK). The poly ADP-ribose polymerase (PARP) cleavage have been well established as important indices of apoptosis.

[5] = test system: MDA-MB-468 cells; assay type: cell-based, human; conditions: 48 h
Procedure: Cells were plated a density of 2×10^6 cells/plate in 100-mm plate. After 24 hr, cells incubated in media containing serum-free for 3 hr. Then, cells were treated with U75302 (0.5, 1 μM), LY255283 (5, 10 μM) and incubated at 37° C. for 48 h. Both attached and detached cells were collected and resuspended in a lysis buffer (20 mM Tris/HCl, pH 8.0, 0.1 mM EDTA, 1% SDS, and 0.5 mg/ml proteinase K) and then incubated at 50° C. for overnight. DNA was extracted with phenol/chloroform.

[6] = test system: MDA-MB-468 cells; test: Western blotting of caspase-9 and PARP; assay type: cell-based, human; conditions: 48 hr
Procedure: Cells were plated a density of 2×10^6 cells/plate in 100-mm plate. After 24 h, cells incubated in media containing serum-free for 3 hr. Then, cells were treated with U75302 (0.5, 1 μM), LY255283 ([…]) and incubated at 37° C. for 48 hr. […] Proteins were separated by SDS-PAGE and transferred onto a nitrocellulose membrane. The membrane was blocked with 5% nonfat dry milk in Tris-buffered saline and then incubated with primary antibodies against caspase-9, PARP for 1 h at room temperature. Blots were developed with a peroxidase-conjugated secondary antibody and proteins were visualized by enhanced chemiluminescence (ECL) procedures (Amersham, USA) according to the manufacturer's recommendation

CCCCC/C=C\C[C@@H](O)/C=C/c1cccc(C[C@@H](O)CCCCO)n1 [U75302]
lung metastasis driven by H-Ras^V12 [1]: caused no suppression on metastasis
growth of breast cancer cell lines [2]: had no effect on growth
growth of normal IMR-90 cells [3]: had no effect on growth
level of protein (Western blot) compared with control [4]: no significant change
DNA fragmentation [5]: did not induce DNA fragmentation
activation of caspase-9 and PARP cleavage [6]: did not affect on caspase-9 activation and PARP cleavage

CCc1cc(C(C)=O)c(O)cc1OCCCCCC(C)(C)c1nnn[nH]1 [LY255283, 1-[5-ethyl-2-hydroxy-4-[[6-methyl-6-(1H-tetrazol-5-yl)heptyl]oxy]phenyl]-ethanone]
lung metastasis driven by H-Ras^V12 [1]: significantly reduced
growth of breast cancer cell lines [2]: significantly inhibits the growth
growth of normal IMR-90 cells [3]: did not affect
pro-apoptotic protein Bax level ([4]; 10 μM): significant increased
apoptosis induction (PARP cleavage) [4]: Apoptosis induction was observed
pro-caspase 9 level [4]: reduction of pro-caspase 9
DNA fragmentation [5]: laddering pattern characteristic of apoptosis
activation of caspase-9 and PARP cleavage [6]: dose-dependent activation of caspase-9 and cleavage of PARP
